In brackets after ≈: the same amount, converted by molar mass.
Legend:
[1] = system: C. difficile 630Δerm; experiment: Minimum inhibitory concentration (MIC); type: cell-based, Clostridioides difficile; settings: Mueller-Hinton Broth, 24 h, 37°C, anaerobic, ~5 x 10^5 CFU/ml
Protocol: (§1) Minimum inhibitory concentrations (MIC) were determined as previously described. […] Briefly, overnight cultures of C. difficile strains were diluted 1:50 in Mueller-Hinton Broth (Difco) and grown to OD600 of 0.45 (~5 x 10^7 CFU/ml). Cultures were then diluted 1:10 in MHB and seeded at a further 1:10 dilution in a round-bottom 96-well plate prepared with serial dilutions of antimicrobials for a starting concentration of ~5 x 10^5 CFU/ml. Plates were incubated for 24 h at 37°C in the anaerobic chamber.

[2] = system: C. difficile clnAB mutant (MC935); experiment: Minimum inhibitory concentration (MIC); type: cell-based, Clostridioides difficile; settings: Mueller-Hinton Broth, 24 h, 37°C, anaerobic, ~5 x 10^5 CFU/ml
Protocol: as §1

[3] = system: C. difficile clnR mutant (MC885); experiment: Minimum inhibitory concentration (MIC); type: cell-based, Clostridioides difficile; settings: Mueller-Hinton Broth, 24 h, 37°C, anaerobic, ~5 x 10^5 CFU/ml
Protocol: as §1

[4] = system: C. difficile clnR mutant; experiment: clnR and clnA expression by qRT-PCR in LL-37; type: cell-based, Clostridioides difficile; settings: 2 µg/ml LL-37, BHIS
Protocol: Fig 4 ClnR acts as a conditional repressor and inducer of clnRAB expression. […] RNA samples were collected and processed for qRT-PCR analysis as described in Methods. Graphs show the mean mRNA expression levels of A) clnR and B) clnA relative to expression in strain 630Δerm in BHIS alone. […] Data were analyzed by two-way ANOVA and Tukey’s multiple comparisons test, with comparisons indicated by brackets. * indicates p < 0.05, ** indicates p ≤ 0.0001.

[5] = system: TcdA in C. difficile 630Δerm (parent strain); experiment: TcdA western blot; settings: 2 μg/ml LL-37, TY medium, 24 h, 37°C; three replicates
[6] = system: TcdA in C. difficile clnR and clnAB mutants; experiment: TcdA western blot; settings: 2 μg/ml LL-37, TY medium, 24 h, 37°C
[7] = system: C. difficile clnR and clnA mutants; experiment: Growth in BHIS with LL-37; settings: 2.5 μg/ml LL-37 in BHIS, versus parent strain
[8] = system: C. difficile clnAB mutant; experiment: qRT-PCR of selected RNA-seq transcripts in LL-37; settings: 2 µg/ml LL-37; normalized to 630∆erm in BHIS; mean ± SEM, n ≥ 3
[9] = system: C. difficile clnR Tn::clnRAB; experiment: qRT-PCR of selected RNA-seq transcripts in LL-37; settings: 2 µg/ml LL-37; normalized to 630∆erm in BHIS; mean ± SEM, n ≥ 3
[10] = system: C. difficile clnR and clnAB mutants; experiment: Growth in minimal medium with LL-37 (growth curves); settings: 0.5 μg/ml LL-37; base MM, MM with mannitol, NAG, EA; versus parent strain
[11] = system: tcdA, tcdB, sigD, tcdR, ilvC, CD0341 expression in C. difficile 630Δerm; experiment: Toxin and regulator gene expression by qRT-PCR in LL-37
[12] = system: C. difficile 630Δerm; experiment: Growth in minimal medium with LL-37, maximum doubling time; settings: mean ± SD, n ≥ 3
[13] = system: C. difficile clnAB mutant; experiment: as above; settings: mean ± SD, n ≥ 3
[14] = system: C. difficile clnR Tn::clnRAB; experiment: as above; settings: mean ± SD, n ≥ 3
[15] = system: C. difficile clnAB Tn::clnRAB; experiment: as above; settings: mean ± SD, n ≥ 3
[16] = system: clnR expression in C. difficile 630Δerm; experiment: clnR expression by qRT-PCR after exposure to antimicrobials (induction specificity); settings: 2 μg/ml, BHIS; normalized to 630Δerm in BHIS without antimicrobials; mean of three replicates ± SEM
[17] = 2 μg/ml LL-37, BHIS, log phase, wild-type cells, p < 0.05
[18] = 2 µg/ml LL-37, normalized to 630∆erm in BHIS, mean of three replicates ± SEM
[19] = 0.5 µg/ml LL-37, MM + 30 mM NAG, § p < 0.05 vs no LL-37
[20] = 0.5 µg/ml LL-37, MM + 30 mM ethanolamine
[21] = 0.5 µg/ml LL-37, MM + 30 mM fructose
[22] = 0.5 µg/ml LL-37, MM + 30 mM glucose
[23] = 0.5 µg/ml LL-37, MM + 30 mM mannitol
[24] = 0.5 µg/ml LL-37, MM + 30 mM mannose

Structure (SMILES): CC[C@H](C)[C@H](NC(=O)[C@H](CCCCN)NC(=O)[C@H](CCC(=O)O)NC(=O)[C@H](CCCCN)NC(=O)[C@H](CO)NC(=O)[C@H](CCCCN)NC(=O)[C@H](CCCNC(=N)N)NC(=O)[C@H](Cc1ccccc1)NC(=O)[C@H](Cc1ccccc1)NC(=O)[C@H](CC(=O)O)NC(=O)CNC(=O)[C@H](CC(C)C)NC(=O)[C@@H](N)CC(C)C)C(=O)NCC(=O)N[C@@H](CCCCN)C(=O)N[C@@H](CCC(=O)O)C(=O)N[C@@H](Cc1ccccc1)C(=O)N[C@@H](CCCCN)C(=O)N[C@@H](CCCNC(=N)N)C(=O)N[C@H](C(=O)N[C@H](C(=O)N[C@@H](CCC(N)=O)C(=O)N[C@@H](CCCNC(=N)N)C(=O)N[C@H](C(=O)N[C@@H](CCCCN)C(=O)N[C@@H](CC(=O)O)C(=O)N[C@@H](Cc1ccccc1)C(=O)N[C@@H](CC(C)C)C(=O)N[C@@H](CCCNC(=N)N)C(=O)N[C@@H](CC(N)=O)C(=O)N[C@@H](CC(C)C)C(=O)N[C@H](C(=O)N1CCC[C@H]1C(=O)N[C@@H](CCCNC(=N)N)C(=O)N[C@H](C(=O)N[C@@H](CCC(=O)O)C(=O)N[C@@H](CO)C(=O)O)[C@@H](C)O)C(C)C)[C@@H](C)CC)C(C)C)[C@@H](C)CC [LL-37]
- MIC [1]: 15 µg/mL (≈ 3.34 µM)
- MIC [2]: 15 µg/mL (≈ 3.34 µM)
- MIC [3]: 15 µg/mL (≈ 3.34 µM)
- clnR and clnA expression (in words) [4]: no longer induced in the clnR mutant
- TcdA levels, fold decrease [5]: about 3 fold
- TcdA levels (in words) [6]: TcdA levels did not change
- growth (in words) [7]: grew slightly better than the parent strain
- cstA (CD630_26000) relative expression [8]: 2.9 ± 1.2
- iorA (CD630_23810) relative expression [8]: 20.5 ± 7.3
- mtlA (CD630_23340) relative expression [8]: 5.5 ± 4.3
- sigT (csfT; CD630_06770) relative expression [8]: 1.2 ± 0.1
- sigU (csfU; CD630_18870) relative expression [8]: 3.1 ± 1.4
- vanZ1 (CD630_12400) relative expression [8]: 0.9 ± 0.2
- CD630_02840 relative expression [9]: 602.6 ± 455.6
- cstA (CD630_26000) relative expression [9]: 36.3 ± 21.3
- grdA (CD630_23520) relative expression [9]: 1649.2 ± 814.6
- mtlA (CD630_23340) relative expression [9]: 0.6 ± 0.2
- growth (in words) [10]: grew better than the parent strain
- tcdA expression, fold increase [11, 17]: 4.6 fold
- tcdB expression, fold increase [11, 17]: 2.2 fold
- sigD fold-change in expression in LL-37 [11, 18]: 0.95 ± 0.08
- tcdR fold-change in expression in LL-37 [11, 18]: 1.47 ± 0.44
- ilvC fold-change in expression in LL-37 ([11]; 2 µg/ml LL-37, normalized to 630∆erm in BHIS, mean of three replicates ± SEM, indicates CodY activity): 2.21 ± 0.20
- ilvC expression, fold increase ([11]; LL-37, p < 0.05): 2.2 fold
- Doubling time [12, 19]: 91.5 ± 5.7 min
- Doubling time [12, 20]: 90.7 ± 7.9 min
- Doubling time [12, 21]: 70.2 ± 3.9 min
- Doubling time [12, 22]: 67.7 ± 4.9 min
- Doubling time [12, 23]: 69.9 ± 3.4 min
- Doubling time [12, 24]: 70.3 ± 5.5 min
- Doubling time ([12]; 0.5 µg/ml LL-37, base MM): 82.2 ± 5.1 min
- Doubling time [13, 19]: 80.3 ± 1.0 min
- Doubling time [13, 20]: 79.6 ± 9.0 min
- Doubling time [13, 21]: 65.1 ± 2.0 min
- Doubling time [13, 22]: 62.1 ± 2.2 min
- Doubling time [13, 23]: 58.3 ± 5.5 min
- Doubling time [13, 24]: 66.8 ± 4.5 min
- Doubling time ([13]; 0.5 µg/ml LL-37, base MM): 77.1 ± 5.3 min
- Doubling time ([14]; 0.5 µg/ml LL-37, MM + 30 mM NAG): 111.1 ± 16.5 min
- Doubling time [14, 20]: 93.4 ± 12.2 min
- Doubling time [14, 21]: 80.4 ± 7.4 min
- Doubling time [14, 22]: 76.4 ± 5.4 min
- Doubling time [14, 23]: 75.6 ± 5.3 min
- Doubling time [14, 24]: 80.4 ± 8.3 min
- Doubling time ([14]; 0.5 µg/ml LL-37, base MM, § p < 0.05 vs no LL-37): 84.8 ± 4.5 min
- Doubling time [15, 19]: 83.6 ± 1.7 min
- Doubling time [15, 20]: 84.0 ± 6.7 min
- Doubling time [15, 21]: 69.8 ± 2.5 min
- Doubling time [15, 22]: 70.8 ± 4.8 min
- Doubling time [15, 23]: 66.4 ± 1.8 min
- Doubling time [15, 24]: 72.6 ± 3.1 min
- Doubling time ([15]; 0.5 µg/ml LL-37, base MM): 76.4 ± 2.6 min
- Relative clnR expression [16]: 530.1 ±110.5
